In the SangsterLogP compilation:

Columns and labels:
[1] = method code SF-AS, from DOI: 10.1021/jm9807104, PMID: 10514282; conditions: pH 7.0
[2] = method code SF-AS, from DOI: 10.1016/s0021-9673(01)89522-4
[3] = method code SF-HPLC, from DOI: 10.1023/a:1011018730459, PMID: 11451042
[4] = method code SF-AS, from DOI: 10.1023/a:1018977225919, PMID: 10554109; conditions: pH 3.5
[5] = from Courrière, P.; Paubel, J.P.; Nivière, P.; Foussard-Blaspin, O. (1978). Structure-activity study in a series of local anesthetic agents. I. Physicochemical properties and molecular orbital study. …
[6] = method code SF-AS, from DOI: 10.1002/jps.2600720808, PMID: 6620139
[7] = method code SF-HPLC, from DOI: 10.3109/14756366.2013.845817, PMID: 24156741
[8] = method code SF-RC/EN, from DOI: 10.1016/s0022-2275(20)42614-8, PMID: 2280184; conditions: pH 1.0
[9] = not given; remark: listed apart in the source
[10] = method code SF-GLC, from DOI: 10.1023/a:1015803202857, PMID: 2395795
[11] = method code SF-AS, from DOI: 10.1021/jf970979g, PMID: 10554305
[12] = method code SF-AS, from DOI: 10.1248/cpb.45.1287, PMID: 9301027
[13] = not given; remark: listed apart in the source
[14] = pH 7.4
[15] = method code SF-ESR, from DOI: 10.1515/znc-1987-7-832, PMID: 2961152
[16] = method code SF, from DOI: 10.1016/j.bmcl.2009.04.053, PMID: 19409782
[17] = method code SF-HPLC, from DOI: 10.1016/0378-5173(89)90313-x; conditions: pH 7.4
[18] = method code SF-RC, from DOI: 10.1016/j.nucmedbio.2016.03.005, PMID: 27179748; conditions: pH 7.4
[19] = not given; remark: listed apart in the source
[20] = not given; remark: listed apart in the source
[21] = method code SF-AS, from DOI: 10.1002/jps.2600830406, PMID: 7913964
[22] = method code SF-HPLC, from DOI: 10.2174/1871523013666141114203105, PMID: 25403255; conditions: pH 7.4
[23] = method code SF-HPLC, from DOI: 10.1016/s0969-8043(00)00269-4, PMID: 11200881; conditions: pH 7.4
[24] = not given; remark: listed apart in the source
[25] = not given; remark: listed apart in the source
[26] = method code SF-AS, from DOI: 10.1002/jps.2600610435, PMID: 5014327

In the case of `COC(=O)C(C)NP(=O)(Oc1ccc(C)cc1)OC1C=CC(n2cc(C)c(=O)[nH]c2=O)O1` (stereo not drawn), the logD [1] is reported as 1.19.
`CC12CCC(O)CC1CCC1C2CCC2(C)C(C3=CC(=O)OC3)C(O)CC12O` (stereo not drawn) showed a logP [2] of 1.76.
With `CCCCCCCC(=O)OCC1OC(n2cnc3c(NC4CCCC4)ncnc32)C(O)C1O` (stereo not drawn) the logP [3] was 3.91.
Work on `C[C@H](CN1CCOCC1)C(C(=O)N1CCCC1)(c1ccccc1)c1ccccc1` yielded a logP of 3.61.
In the case of `CCCCCC(O)C=CC1C(O)CC(=O)C1CCCCCCC(=O)O` (stereo not drawn), the logD [4] is reported as 3.12.
Molecule `Cc1cccc(C)c1N(CCCN(C)C)C(=O)Cc1ccccc1` has a logP [5] of 4.9.
With `Cc1cccc(C)c1N(CCCN(C)C)C(=O)/C=C/c1ccccc1` the logP [5] was 5.27.
With `COc1cc(C(=O)OCC2OC(n3cnc4c(NC5CCCC5)ncnc43)C(O)C2O)cc(OC)c1OC` (stereo not drawn) the logP [3] was 2.27.
For `CCCCC[C@H](O)/C=C/[C@@H]1[C@@H](C/C=C\CCCC(=O)O)[C@@H](O)C[C@H]1O`, the logP [6] was 2.72.
For `C#CCn1cc(C(=O)NC(c2ccccc2)C(O)C(=O)Nc2ccccc2)c(=O)c2cc(F)c(Cl)nc21` (stereo not drawn), the logP [7] was 5.55.
Molecule `C[C@H](CCC(=O)O)C1CCC2C3C(CC[C@@]21C)[C@@]1(C)CC[C@@H](O)CC1C[C@H]3O` (stereo partly drawn) has a logD [8] of 3.28.
`CCC1C[C@H]2[C@@H]3CCC4=CC(=O)CC[C@@H]4[C@H]3CC[C@]2(C)C1C(=O)CO` (stereo partly drawn) showed a logP [9] of 4.21.
With `O=C(CCCN1CCC(O)(c2ccc(Cl)cc2)CC1)c1ccc(F)cc1` the logP [10] was 3.23.
For `CC(NC1=CC(=O)C(NC(C)C(O)c2ccccc2)=CC1=O)C(O)c1ccccc1` (stereo not drawn), the logP [11] was 1.42.
In the case of `CCOCCn1c(CN2CCCN(CCCCn3cccn3)CC2)nc2ccccc21`, the logP [12] is reported as 4.61.
`C#C[C@]1(O)CC[C@H]2[C@@H]3CCc4cc(O)ccc4[C@H]3[C@@H](CC)C[C@@]21C` gave a logP [13] of 4.28.
Molecule `C[C@H](CCC(=O)O)[C@H]1CC[C@H]2[C@@H]3CC[C@@H]4C[C@H](O)CC[C@]4(C)[C@H]3C[C@H](O)[C@]12C` has a logD [4] of 3.5.
Work on `C[C@H](CCC(=O)O)[C@H]1CC[C@H]2[C@@H]3[C@H](O)C[C@@H]4C[C@H](O)CC[C@]4(C)[C@H]3C[C@H](O)[C@]12C` yielded a logD [8] of 2.02.
For `COc1cc([N+](=O)[O-])cc(C=CC(=O)N2CCC(n3c(=O)[nH]c4ccccc43)CC2)c1OC`, the logD [14] was 3.
Molecule `CCC1C[C@H]2[C@@H]3CCC4=CC(=O)CC[C@@H]4[C@H]3CC[C@]2(C)[C@H]1C(=O)CF` (stereo partly drawn) has a logP [9] of 4.41.
Molecule `CC1(C)CC(N(CCN(C(=O)N(CCCl)N=O)C2CC(C)(C)N(O)C(C)(C)C2)C(=O)N(CCCl)N=O)CC(C)(C)N1O` has a logP [15] of 2.35.
Work on `COC(=O)C(C)NP(=O)(OCC1C=CC(n2cc(C)c(=O)[nH]c2=O)O1)Oc1ccc(OC(C)=O)cc1` (stereo not drawn) yielded a logD [1] of 1.01.
`O=[N+]([O-])N=C1N(Cc2ccc(Cl)nc2)CCN1Cc1ccc2c(c1)OCCOCCOCCOCCO2` gave a logP [16] of -0.82.
Work on `C#CCn1cc(C(=O)NC(C(=O)NC2CCCC2)c2ccccc2)c(=O)c2cc(F)c(Cl)nc21` (stereo not drawn) yielded a logP [7] of 6.22.
Molecule `CN1C=CCC(C(=O)NCC(OC(=O)CCCc2ccc(N(CCCl)CCCl)cc2)c2ccccc2)=C1` (stereo not drawn) has a logD [17] of 2.29.
In the case of `COc1ccc(S(=O)(=O)N(Cc2ccc(OCCOCCOCCOCCOCc3cn(CCF)nn3)cc2)[C@@H](C(=O)NO)C(C)C)cc1`, the logD [18] is reported as 1.24.
`OC(CCN1CCCCC1)(c1ccccc1)C1CC2C=CC1C2` (stereo not drawn) showed a logP [10] of 4.25.
With `CC(C)(C)NCC(COc1nsnc1N1CCOCC1)OC(=O)c1ccccc1COC(=O)c1ccccc1` (stereo not drawn) the logP [19] was 4.37.
For `CSc1nc(NCc2cccc(Cl)c2)c2cnn(CC(Cl)c3ccccc3)c2n1` (stereo not drawn), the logP [20] was 5.87.
Work on `CCOCCn1c(N2CCCN(CCCCn3cccn3)CC2)nc2ccccc21` yielded a logP [12] of 3.99.
For `O=C(C=Cc1cc([N+](=O)[O-])cc2c1OCO2)N1CCC2(CC1)C(=O)NCN2c1ccccc1`, the logD [14] was 3.1.
Molecule `COC(=O)[C@@H]1C[C@H]2[C@@H]3CCC4=CC(=O)C=C[C@]4(C)[C@H]3[C@@H](O)C[C@]2(C)[C@H]1C(=O)CO` has a logP [21] of 1.7.
`COC(=O)[C@@H]1C[C@H]2[C@@H]3CCC4=CC(=O)C=C[C@]4(C)[C@@]3(F)[C@@H](O)C[C@]2(C)[C@H]1C(=O)CO` showed a logP [21] of 1.78.
In the case of `COc1ccc(S(=O)(=O)N(Cc2cn(CCOCCOCCOCCF)nn2)C(C(=O)NO)C(C)C)cc1` (stereo not drawn), the logD [18] is reported as 0.23.
With `CC1(C)CC(N(C(=O)N(CCCl)N=O)C2CC(C)(C)N(O)C(C)(C)C2)CC(C)(C)N1O` the logP [15] was 1.63.
`CC1CCC(C(C)C)C(OC(=O)COC(=O)Cc2ccccc2Nc2c(Cl)cccc2Cl)C1` (stereo not drawn) showed a logD [22] of 5.07.
`CCOC(=O)C1(c2ccccc2)CCN(CCC(O)c2ccccc2)CC1` (stereo not drawn) gave a logP of 4.04.
`CNc1cccc(NC(=O)N[C@@H]2N=C(c3ccccn3)c3ccccc3N(CC(=O)C(C)(C)C)C2=O)c1` gave a logD [23] of 2.68.
For `COc1ccc(-c2oc3c(CC=C(C)C)c(O)cc(O)c3c(=O)c2O)cc1`, the logP [24] was 6.07.
In the case of `C#C[C@@]1(O)[C@@H](F)C[C@H]2[C@@H]3CCc4cc(O)ccc4[C@H]3[C@@H](CC)C[C@@]21C`, the logP [13] is reported as 4.12.
Molecule `CCCCCCCC(=O)OC(CNC(C)(C)C)COc1nsnc1N1CCOCC1` (stereo not drawn) has a logP [19] of 4.66.
Molecule `CC(NC1=CC(=O)C(NC(C)c2ccccc2)=CC1=O)c1ccccc1` (stereo not drawn) has a logP [11] of 0.98.
For `CCN(CC)C(=O)Nc1ccc(OCC(O)CNC(C)(C)C)c(C(C)=O)c1` (stereo not drawn), the logP [25] was 1.92.
Molecule `CSc1nc(NCCc2ccccc2)c2cnn(C(Cl)c3ccc(Cl)cc3)c2n1` (stereo not drawn) has a logP [20] of 6.54.
`Cc1ccc(C(C)C)c(OC(=O)COC(=O)Cc2ccccc2Nc2c(Cl)cccc2Cl)c1` showed a logD [22] of 5.08.
For `CC12CCC(O)CC1CCC1C2CCC2(C)C(C3=CC(=O)OC3)CCC12O` (stereo not drawn), the logP [2] was 2.64.
With `O=[N+]([O-])N=C1N(Cc2ccc(Cl)nc2)CCN1Cc1ccc2c(c1)OCCOCCOCCOCCOCCO2` the logP [16] was -0.55.
Work on `CN1C=CCC(C(=O)NCCCOC(=O)CCCc2ccc(N(CCCl)CCCl)cc2)=C1` yielded a logD [17] of 2.75.
In the case of `N#Cc1ccc2c(c1)N(CCCN1CCC(O)CC1)c1ccccc1S2`, the logP [25] is reported as 3.89.
Molecule `COc1ccccc1N1CCN(CCN(C(=O)C2CCCCC2)c2ccccn2)CC1` has a logD [23] of 3.1.
`COc1ccc(-c2oc3c(CC=C(C)C)c(O)cc(O)c3c(=O)c2O[C@@H]2O[C@@H](C)[C@H](O)[C@@H](O)[C@H]2O)cc1` showed a logP [24] of 5.11.
Work on `CCCCC[C@](C)(O)/C=C/C1[C@H](O)C[C@H](O)[C@@H]1C/C=C\CCCC(=O)OC` (stereo partly drawn) yielded a logP [6] of 3.21.
Molecule `COc1cc(C(=O)NC2CCCC3CN(C)CCC32)cc(OC)c1OC` (stereo not drawn) has a logP [26] of -0.3.
